Measured values from article PMC10385865, “Synthesis and Anticancer Activity of Novel Dual Inhibitors of Human Protein Kinases CK2 and PIM-1” (Pharmaceutics, 2023).

Columns and labels:
CK2 = biological target: CK2; design: method as in PMID 33807474; settings: Figure 1, representative CK2 inhibitors; cited from earlier work
[1] = system: K-562 (chronic myelogenous leukemia); assay: MTT-based viability assay, K-562; type: cell-based, human; settings: for IC50: Homo sapiens, K562, MTT, 48 h, read-out: IC50 K-562; for SI (selectivity index) K-562: IC50 Vero/IC50 cancer cells
Protocol: (§1) After incubation with the tested compounds, an MTT test was performed as described previously. Optical densities were measured at 570 nm using a BioTek microplate reader (BioTek Instruments, Inc., Winooski, VT, USA). All measurements were carried out in a minimum of three biological replicates.
(§2) . The IC50 values describing the half-maximal effective concentration of each tested compound were calculated and are summarized in Table 2. […].

human CK2α = biological target: T1, human CK2α (Homo sapiens, UniProt P68400); assay: P81 filter isotopic (radiometric) kinase assay, CK2 catalytic subunit; type: biochemical; settings: substrate peptide […], Ki from IC50 by Cheng–Prusoff
T1 construct: made in house
Protocol: (§3) The obtained compounds were tested for their inhibitory activity toward human CK2α, human CK2 holoenzyme, and PIM-1 using a P81 filter isotopic assay as described previously. […] The experimental data were fitted to the sigmoidal dose–response equation, i.e., (variable slope) Y = Bottom + (Top-Bottom)/(1 + 10^((LogIC50−X)∗HillSlope), in GraphPad Prism (Prism 9, v. 9.0.1).
(§4) Inhibition of the human CK2 catalytic subunit (CK2α), CK2 holoenzyme (CK2α2β2), and PIM-1 by the newly obtained compounds was evaluated using a radiometric assay (Table 1, Figure S2). The synthetic peptide […] was used as the substrate of CK2, and peptide […] was used as the substrate of PIM-1. The values of the inhibition constant (Ki) were calculated using the Cheng–Prusoff equation: Ki = IC50/(1 + [S]/Km).

[2] = biological target: T2, human CK2 holoenzyme (CK2α2β2) (Homo sapiens, UniProt P68400); assay: P81 filter isotopic (radiometric) kinase assay, CK2 holoenzyme; type: biochemical; settings: substrate peptide […], Ki from IC50 by Cheng–Prusoff
T2 construct: made in house
Protocol: as §3, §4

MCF-7 (breast carcinoma) = assay: MTT-based viability assay, MCF-7; type: cell-based, human; settings: for IC50: Homo sapiens, MCF7, MTT, 48 h, read-out: IC50 MCF-7; for SI (selectivity index) MCF-7: IC50 Vero/IC50 cancer cells
Protocol: as §1, §2

Vero cells = assay: MTT-based viability assay, non-cancerous Vero cells; type: cell-based, Cercopithecus aethiops; settings: Chlorocebus sabaeus, MTT, 48 h, read-out: IC50 Vero
Protocol: as §1, §2

PIM-1 = biological target: T3, PIM-1 (Homo sapiens, UniProt P11309); assay: P81 filter isotopic (radiometric) kinase assay, PIM-1; type: biochemical; settings: substrate peptide […], Ki from IC50 by Cheng–Prusoff
T3 construct: made in house
Protocol: as §3, §4

[3] = system: CCRF-CEM (acute lymphoblastic leukemia); assay: MTT-based viability assay, CCRF-CEM; type: cell-based, human; settings: for IC50: Homo sapiens, CCRF-CEM, MTT, 48 h, read-out: IC50 CCRF-CEM; for SI (selectivity index) CCRF-CEM: IC50 Vero/IC50 cancer cells
Protocol: as §1, §2

PIM1 = biological target: PIM1; design: method as in PMID 23360763, PMID 24442476, PMID 34200807; settings: Figure 1, dual CK2/PIM-1 inhibitors; cited from earlier work
CK2-α = biological target: CK2-α; design: method as in PMID 23360763, PMID 24442476, PMID 34200807; settings: Figure 1, dual CK2/PIM-1 inhibitors; cited from earlier work

T3 sequence (P11309 whole entry): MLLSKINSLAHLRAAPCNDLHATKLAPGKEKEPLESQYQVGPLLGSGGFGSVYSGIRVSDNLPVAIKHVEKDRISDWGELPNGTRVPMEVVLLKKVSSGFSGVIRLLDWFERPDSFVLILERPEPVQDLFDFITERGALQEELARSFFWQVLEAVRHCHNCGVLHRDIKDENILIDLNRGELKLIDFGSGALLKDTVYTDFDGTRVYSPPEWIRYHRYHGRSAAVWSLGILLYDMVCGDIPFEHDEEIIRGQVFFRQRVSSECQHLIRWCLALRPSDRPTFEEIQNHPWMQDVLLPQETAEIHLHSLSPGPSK
T1 sequence (P68400 whole entry): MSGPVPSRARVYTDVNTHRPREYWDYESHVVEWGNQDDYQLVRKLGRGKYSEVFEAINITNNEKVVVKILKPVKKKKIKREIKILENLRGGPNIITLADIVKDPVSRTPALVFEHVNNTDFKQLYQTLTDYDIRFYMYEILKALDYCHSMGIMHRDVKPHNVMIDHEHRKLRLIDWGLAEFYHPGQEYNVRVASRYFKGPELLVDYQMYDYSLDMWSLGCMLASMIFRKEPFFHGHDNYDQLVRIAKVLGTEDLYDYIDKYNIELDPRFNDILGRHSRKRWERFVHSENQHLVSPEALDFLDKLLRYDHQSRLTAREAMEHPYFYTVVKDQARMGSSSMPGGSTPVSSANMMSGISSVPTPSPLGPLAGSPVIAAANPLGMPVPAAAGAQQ
T2 sequence (P68400 whole entry): as above
T2 sequence (P67870 whole entry partner): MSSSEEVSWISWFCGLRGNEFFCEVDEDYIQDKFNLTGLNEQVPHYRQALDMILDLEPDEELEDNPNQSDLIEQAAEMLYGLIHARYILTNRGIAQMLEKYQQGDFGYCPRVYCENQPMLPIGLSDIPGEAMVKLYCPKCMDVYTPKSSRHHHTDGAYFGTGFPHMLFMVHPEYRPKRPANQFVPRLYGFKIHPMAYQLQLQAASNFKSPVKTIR

Row | Molecule | Ki (CK2) [µM] | IC50 [1] [µM] | SI (selectivity index) K-562 [1] | Ki (human CK2α) [µM] | Ki [2] [µM] | IC50 (MCF-7 (breast carcinoma)) [µM] | SI (selectivity index) MCF-7 (MCF-7 (breast carcinoma)) | IC50 (Vero cells) [µM] | Ki (PIM-1) [µM] | IC50 [3] [µM] | SI (selectivity index) CCRF-CEM [3] | Ki (PIM1) [µM] | Ki (CK2-α) [µM]
1 | Brc1c(Br)c(Br)c2[nH]cnc2c1Br [TBBi, 4,5,6,7-tetrabromo-1H-benzimidazole] | 0.3 | – | – | – | – | – | – | – | – | – | – | – | –
2 | CN(CCO)c1nc2c(Br)c(Br)c(Br)c(Br)c2[nH]1 [Compound 8, 2-[Methyl(4,5,6,7-tetrabromo-1H-benzimidazol-2-yl)amino]ethanol] | – | 40 ± 7.45 | 0.40 | 0.256 | 0.072 | 15.1 ± 0.39 | 1.06 | 16.1 ± 0.27 | 0.071 | 17.4 ± 0.27 | 0.92 | – | –
3 | CCN(CC)CC(O)CNc1nc2c(Br)c(Br)c(Br)c(Br)c2[nH]1 (racemic) [rac-9, 1-(Diethylamino)-3-[(4,5,6,7-tetrabromo-1H-benzimidazol-2-yl)amino]propan-2-ol] | – | 11.6 ± 2.85 | 1.03 | 1.67 | 0.605 | 10.8 ± 0.23 | 1.11 | 12 ± 0.21 | 0.267 | 13.6 ± 0.84 | 0.88 | – | –
4 | O=c1[nH]c2c(Br)c(Br)c(Br)c(Br)c2[nH]1 [Compound K32, 4,5,6,7-tetrabromo-2,3-dihydro-1H-1,3-benzodiazol-2-one] | 0.15 | – | – | – | – | – | – | – | – | – | – | – | –
5 | OCCCNc1nc2c(Br)c(Br)c(Br)c(Br)c2[nH]1 [Compound 7, 3-[(4,5,6,7-Tetrabromo-1H-benzimidazol-2-yl)amino]propan-1-ol] | – | 33.7 ± 4.92 | 0.87 | 0.156 | 0.114 | 18.2 ± 0.3 | 1.62 | 29.46 ± 0.12 | 0.082 | 25.6 ± 0.54 | 1.15 | – | –
6 | C[C@H](O)CNc1nc2c(Br)c(Br)c(Br)c(Br)c2[nH]1 [(S)-5, (2S)-1-[(4,5,6,7-tetrabromo-1H-benzimidazol-2-yl)amino]propan-2-ol] | – | 39.3 ± 9.05 | 0.64 | 0.271 | 0.167 | 16.6 ± 0.3 | 1.52 | 25.2 ± 0.54 | 0.099 | 23.2 ± 4.01 | 1.11 | – | –
7 | C[C@@H](O)CNc1nc2c(Br)c(Br)c(Br)c(Br)c2[nH]1 [(R)-5, (2R)-1-[(4,5,6,7-tetrabromo-1H-benzimidazol-2-yl)amino]propan-2-ol] | – | 39.6 ± 8.11 | 0.71 | 0.394 | 0.104 | 16.1 ± 0.19 | 1.76 | 28.3 ± 0.43 | 0.089 | 22.31 ± 0.1 | 1.27 | – | –
8 | OC[C@H]1O[C@@H](n2cnc3cc(Cl)c(Cl)cc32)[C@H](O)[C@@H]1O [DRB, 5,6-dichloro-1-β-D-ribofuranosylbenzimidazole] | 23 | – | – | – | – | – | – | – | – | – | – | – | –
9 | OC[C@H]1O[C@@H](n2cnc3c(Br)c(Br)c(Br)c(Br)c32)C[C@@H]1O [TDB (K164), 1-(β-D-2′-deoxyribofuranosyl)-4,5,6,7-tetrabromo-1H-benzimidazole] | – | – | – | – | – | – | – | – | – | – | – | 0.04 | –
10 | 4,5,6,7-tetrabromo-2,3-dihydro-1H-1,3-benzodiazol-2-one [Compound K37] | 0.07 | – | – | – | – | – | – | – | – | – | – | – | –
11 | CC(O)CNc1nc2c(Br)c(Br)c(Br)c(Br)c2[nH]1 (racemic) [rac-5, 1-[(4,5,6,7-Tetrabromo-1H-benzimidazol-2-yl)amino]propan-2-ol] | – | 38.7 ± 8.08 | 0.58 | 0.296 | 0.127 | 16.9 ± 0.3 | 1.34 | 22.58 ± 0.13 | 0.064 | 21.7 ± 0.86 | 1.04 | – | –
12 | OCC(CO)Nc1nc2c(Br)c(Br)c(Br)c(Br)c2[nH]1 [Compound 10, 2-[(4,5,6,7-Tetrabromo-1H-benzimidazol-2-yl)amino]propane-1,3-diol] | – | 38.1 ± 5.56 | 0.66 | 0.139 | 0.124 | 16.6 ± 0.23 | 1.51 | 25.19 ± 0.1 | 0.093 | 24.47 ± 0.21 | 1.03 | – | –
13 | OCC(O)CNc1nc2c(Br)c(Br)c(Br)c(Br)c2[nH]1 (racemic) [rac-11, 3-[(4,5,6,7-Tetrabromo-1H-benzimidazol-2-yl)amino]propane-1,2-diol] | – | 41.5 ± 8.45 | 1.00 | 0.151 | 0.089 | 17.2 ± 0.39 | 2.41 | 41.53 ± 0.1 | 0.073 | 33.8 ± 0.26 | 1.23 | – | –
14 | Cc1nc2c(Br)c(Br)c(Br)c(Br)c2n1CCCO [N^1-PrOH-2-MeTBBi, 3-(4,5,6,7-tetrabromo-2-methyl-1H-1,3-benzodiazol-1-yl)propan-1-ol] | – | – | – | – | – | – | – | – | – | – | – | 0.15 | 0.05
